Assay: Attempted conversion of polymorph (II) to polymorph (I) by heating in water
Type: physicochemical
Details: 18 days at 90-100° C.
From the text: An attempt was made to convert polymorph (II) to polymorph (I) by heating in water for an extended period of time.

conversion of polymorph (II) to polymorph (I) (polymorph stability): No evidence of conversion
SMILES: O=C([O-])[O-].[La+3].[OH-] [polymorph (II), lanthanum hydroxycarbonate]
